Reference: ChEMBL document CHEMBL2086249, “Use of small-molecule crystal structures to address solubility in a novel series of G protein coupled receptor 119 agonists: optimization of a lead and in vivo evaluation” (J Med Chem, 2012)

Experiment: physchem
Conditions: pH 7.4

logD (octanol/phosphate buffer) | logD (octanol/water) | Compound
2.8 | – | CC(C)(C)OC(=O)N1C[C@@H]2C[C@H]1CN2c1ncc(OCc2ccc(S(C)(=O)=O)cc2)cn1
> 3.7 | – | C[C@@H]1CN(c2ncc(OCc3ccc(S(C)(=O)=O)cc3)cn2)CCN1C(=O)OC(C)(C)C
– | 3 | C[C@@H]1CN(C(=O)OC(C)(C)C)CCN1c1ncc(OCc2ccc(S(C)(=O)=O)cn2)cn1
3.5 | – | C[C@@H]1CN(C(=O)OC(C)(C)C)CCN1c1ncc(OCc2ccc(S(C)(=O)=O)cc2)cn1
2.8 | – | CC(C)(C)OC(=O)N1CCN(c2ncc(OCc3ccncc3C#N)cn2)CC1
2.8 | – | CC(C)(C)OC(=O)N1CCN(c2ccc(OCc3ccc(S(C)(=O)=O)cc3)nn2)CC1
3.6 | – | CC(C)(C)OC(=O)N1CCN(c2ncc(OCc3ccncc3F)cn2)CC1
– | 2.8 | CC(C)(C)OC(=O)N1CCC(c2ncc(OCc3ccc(S(C)(=O)=O)cc3)cn2)CC1
– | 3.8 | Cc1cnccc1COc1cnc(N2CCN(C(=O)OC(C)(C)C)CC2)nc1
– | 3.9 | CC(C)(C)OC(=O)N1CCN(c2ccc(OCc3ccc(S(C)(=O)=O)cc3)cc2)CC1
3.5 | – | C[C@@H]1CN(C(=O)OC(C)(C)C)CCN1c1ncc(OCC2CCN(S(C)(=O)=O)CC2)cn1
3.8 | – | Cc1cnccc1COc1cnc(N2CCN(C(=O)OC(C)(C)C)C[C@H]2C)nc1
3.3 | – | C[C@@H]1CN(C(=O)OC(C)(C)C)CCN1c1ncc(OCc2ccc(S(C)(=O)=O)cc2C#N)cn1
3.7 | – | Cc1cc(COc2cnc(N3CCN(C(=O)OC(C)(C)C)CC3)nc2)ccn1
3.4 | – | CC(C)(C)OC(=O)N1C[C@@H]2CC[C@H]1CN2c1ncc(OCc2ccc(S(C)(=O)=O)cc2)cn1
– | 2.9 | C[C@@H]1CN(c2noc(C(F)F)n2)CCN1c1ncc(OCc2ccncc2C#N)cn1
4 | – | C[C@@H]1CN(c2noc(C(F)(F)F)n2)CCN1c1ncc(OCc2ccncc2C#N)cn1
3.8 | – | COc1cnccc1COc1cnc(N2CCN(C(=O)OC(C)(C)C)CC2)nc1
> 4.3 | – | C[C@@H]1CN(C(=O)OC(C)(C)C)CCN1c1ncc(OCc2ccc(S(=O)(=O)N(C)C)cc2)cn1
